The text below walks through data of patent US20190364889A1, “Application of Enhancer in Shortening the Half Life of and/or Time for Complete Degradation of Pesticide Residue” (priority 2016, published 2019).

For the data set the following is noted: in vivo.

Compound `CCOCN(C(=O)CCl)c1c(C)cccc1CC` [acetochlor] had a complete degradation time of roughly 21 days.
